Drawing on PubChem BioAssay AID330 (DTP/NCI, 2004), this text covers T/C for seven compounds.

The test system of the experiment is P388 leukemia ip, CD2F1 mice, survival T/C. Description: NCI In Vivo Anticancer Drug Screen. Data for tumor model P388 Leukemia (intraperitoneal) in CD2F1 (CDF1) mice. As to conditions: endpoint: median survival time, higher = longer survival. In outline:
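Mice carrying the transplanted tumor received test compound or vehicle. Survival was recorded in each group, and the value is the treated-group measurement divided by that of the vehicle-treated control group.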

The mark [1] stands for this setting: dose: 12.5 mg/kg/injection, schedule: Q01DX009 (ip), vehicle: saline with Tween-80.
Setting [2] is: dose: 25.0 mg/kg/injection, schedule: Q01DX009 (ip), vehicle: saline with Tween-80.
The mark [3] stands for this setting: dose: 50.0 mg/kg/injection, schedule: Q01DX009 (ip), vehicle: saline with Tween-80.

Each structure is given as a SMILES string. “And” between values parts separate entries of the source, which are not always exact repeats. Equal entries are not always repeated. Toxic doses and inconclusive results are not listed.

For `CC1(C)CC([P+](c2ccccc2)(c2ccccc2)c2ccccc2)=NN1`, the T/C was 115 % of control and 119 % of control (dose: 0.78 mg/kg/injection, schedule: Q01DX009 (ip), vehicle: saline with Tween-80); 123 % of control (dose: 12.5 mg/kg/injection, schedule: Q01DX001 (ip), vehicle: saline); 100 % of control under setting [1]; 122 % of control (dose: 25.0 mg/kg/injection, schedule: Q01DX001 (ip), vehicle: saline).

For `O=C(O)CCC(CCC(=O)O)(C(=O)O)C(=O)O`, the T/C runs as follows: (dose: 60.0 mg/kg/injection, schedule: Q01DX005 (ip), vehicle: saline) 96 % of control; (dose: 120.0 mg/kg/injection, schedule: Q01DX005 (ip), vehicle: saline) 99 % of control.

In the case of `N=C(N)c1ccc2oc(CCc3cc4ccc(C(=N)N)cc4[nH]3)cc2c1`, the T/C (dose: 3.12 mg/kg/injection, schedule: Q04DX003 (ip), vehicle: suspension in saline) was 100 % of control; the T/C (dose: 6.25 mg/kg/injection, schedule: Q04DX003 (ip), vehicle: suspension in saline) is 113 % of control; the T/C (dose: 12.5 mg/kg/injection, schedule: Q04DX003 (ip), vehicle: suspension in saline) was 110 % of control.

`CC1=C(Br)S(=O)(=O)N(c2ccccc2)C(CBr)=C1Br`: the T/C is 100 % of control (dose: 60.0 mg/kg/injection, schedule: Q01DX005 (ip), vehicle: saline with Tween-80); 91 % of control (dose: 120.0 mg/kg/injection, schedule: Q01DX005 (ip), vehicle: saline with Tween-80); 93 % of control (dose: 240.0 mg/kg/injection, schedule: Q01DX005 (ip), vehicle: saline with Tween-80).

Take `CCCCCCCCC1(O)OC(=O)C(C)=C1C` (stereo not given): the T/C is 100 % of control (dose: 12.5 mg/kg/injection, schedule: Q04DX003 (ip), vehicle: saline with Tween-80); 100 % of control (dose: 25.0 mg/kg/injection, schedule: Q04DX003 (ip), vehicle: saline with Tween-80); 103 % of control (dose: 50.0 mg/kg/injection, schedule: Q04DX003 (ip), vehicle: saline with Tween-80).

As for `CCCCCCCCCCSc1ncnc2nc[nH]c12`, the T/C is 100 % of control under setting [1], 90 % of control under setting [2] and 90 % of control under setting [3].

Consider `O=C(NC1CCCCC1)OCc1c(COC(=O)NC2CCCCC2)c(-c2ccc(Cl)c(Cl)c2)n2c1CCC2`, for which the T/C reads like this: (dose: 6.25 mg/kg/injection, schedule: Q01DX009 (ip), vehicle: Klucel (hydroxypropylcellulose) (HPC)) 94 % of control; (dose: 12.5 mg/kg/injection, schedule: Q01DX009 (ip), vehicle: Klucel (hydroxypropylcellulose) (HPC)) 119 % of control; under setting [2], 150 % of control and 168 % of control; (dose: 50.0 mg/kg/injection, schedule: Q01DX009 (ip), vehicle: Klucel (hydroxypropylcellulose) (HPC)) 161 % of control; under setting [3], 166 % of control and 170 % of control and 174 % of control; (dose: 100.0 mg/kg/injection, schedule: Q01DX009 (ip), vehicle: Klucel (hydroxypropylcellulose) (HPC)) 189 % of control. Further, the T/C (dose: 200.0 mg/kg/injection, schedule: Q01DX009 (ip), vehicle: saline with Tween-80) was 91 % of control.
